From ChEMBL document CHEMBL2074069, “Drug- and estrogen-induced cholestasis through inhibition of the hepatocellular bile salt export pump (Bsep) of rat liver” (Gastroenterology, 2000)

T1: Bile salt export pump (Rattus norvegicus, UniProt O70127)
T1 sequence (O70127 whole entry): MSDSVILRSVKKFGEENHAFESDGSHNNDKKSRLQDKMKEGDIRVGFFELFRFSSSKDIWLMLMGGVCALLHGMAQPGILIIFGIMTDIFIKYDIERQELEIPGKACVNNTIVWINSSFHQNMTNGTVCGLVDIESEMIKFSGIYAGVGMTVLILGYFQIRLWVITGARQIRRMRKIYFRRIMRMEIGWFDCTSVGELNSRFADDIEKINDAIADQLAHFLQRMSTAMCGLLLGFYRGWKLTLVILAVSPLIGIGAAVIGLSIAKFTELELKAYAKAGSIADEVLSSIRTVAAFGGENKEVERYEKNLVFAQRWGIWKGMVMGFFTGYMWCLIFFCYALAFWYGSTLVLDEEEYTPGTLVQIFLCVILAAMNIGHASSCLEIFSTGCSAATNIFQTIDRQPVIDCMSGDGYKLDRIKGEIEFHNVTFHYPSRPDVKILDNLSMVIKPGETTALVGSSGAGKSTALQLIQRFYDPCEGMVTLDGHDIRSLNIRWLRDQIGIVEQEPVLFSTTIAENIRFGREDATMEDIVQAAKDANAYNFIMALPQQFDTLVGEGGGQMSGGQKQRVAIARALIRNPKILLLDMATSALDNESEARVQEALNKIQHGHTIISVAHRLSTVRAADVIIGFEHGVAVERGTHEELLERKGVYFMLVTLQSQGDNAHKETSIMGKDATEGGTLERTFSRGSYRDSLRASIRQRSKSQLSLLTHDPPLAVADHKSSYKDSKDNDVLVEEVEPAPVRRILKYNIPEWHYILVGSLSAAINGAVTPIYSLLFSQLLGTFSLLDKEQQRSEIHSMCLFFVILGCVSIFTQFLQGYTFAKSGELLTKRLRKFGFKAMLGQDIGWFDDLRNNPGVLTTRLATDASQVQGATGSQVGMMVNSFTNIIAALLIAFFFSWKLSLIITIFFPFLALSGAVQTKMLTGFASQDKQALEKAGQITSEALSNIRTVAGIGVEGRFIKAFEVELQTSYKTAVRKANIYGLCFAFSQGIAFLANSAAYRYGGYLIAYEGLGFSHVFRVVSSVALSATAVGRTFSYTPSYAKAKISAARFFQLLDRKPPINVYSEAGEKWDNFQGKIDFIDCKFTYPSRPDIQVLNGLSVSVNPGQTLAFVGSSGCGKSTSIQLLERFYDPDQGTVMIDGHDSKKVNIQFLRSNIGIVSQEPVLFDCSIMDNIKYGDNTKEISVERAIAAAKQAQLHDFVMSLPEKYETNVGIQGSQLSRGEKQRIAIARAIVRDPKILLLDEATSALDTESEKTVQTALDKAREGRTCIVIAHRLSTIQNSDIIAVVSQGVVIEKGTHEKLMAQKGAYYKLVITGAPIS


Legend:
[1] = target: ATP-binding cassette sub-family C member 2 (Rattus norvegicus, UniProt Q63120); experiment: TP_TRANSPORTER: uptake in membrane vesicles from Mrp2-expressing Sf9 cells; format: functional, cell membranes, Membrane vesicle
ATP-binding cassette sub-family C member 2, sequence (Q63120 whole entry): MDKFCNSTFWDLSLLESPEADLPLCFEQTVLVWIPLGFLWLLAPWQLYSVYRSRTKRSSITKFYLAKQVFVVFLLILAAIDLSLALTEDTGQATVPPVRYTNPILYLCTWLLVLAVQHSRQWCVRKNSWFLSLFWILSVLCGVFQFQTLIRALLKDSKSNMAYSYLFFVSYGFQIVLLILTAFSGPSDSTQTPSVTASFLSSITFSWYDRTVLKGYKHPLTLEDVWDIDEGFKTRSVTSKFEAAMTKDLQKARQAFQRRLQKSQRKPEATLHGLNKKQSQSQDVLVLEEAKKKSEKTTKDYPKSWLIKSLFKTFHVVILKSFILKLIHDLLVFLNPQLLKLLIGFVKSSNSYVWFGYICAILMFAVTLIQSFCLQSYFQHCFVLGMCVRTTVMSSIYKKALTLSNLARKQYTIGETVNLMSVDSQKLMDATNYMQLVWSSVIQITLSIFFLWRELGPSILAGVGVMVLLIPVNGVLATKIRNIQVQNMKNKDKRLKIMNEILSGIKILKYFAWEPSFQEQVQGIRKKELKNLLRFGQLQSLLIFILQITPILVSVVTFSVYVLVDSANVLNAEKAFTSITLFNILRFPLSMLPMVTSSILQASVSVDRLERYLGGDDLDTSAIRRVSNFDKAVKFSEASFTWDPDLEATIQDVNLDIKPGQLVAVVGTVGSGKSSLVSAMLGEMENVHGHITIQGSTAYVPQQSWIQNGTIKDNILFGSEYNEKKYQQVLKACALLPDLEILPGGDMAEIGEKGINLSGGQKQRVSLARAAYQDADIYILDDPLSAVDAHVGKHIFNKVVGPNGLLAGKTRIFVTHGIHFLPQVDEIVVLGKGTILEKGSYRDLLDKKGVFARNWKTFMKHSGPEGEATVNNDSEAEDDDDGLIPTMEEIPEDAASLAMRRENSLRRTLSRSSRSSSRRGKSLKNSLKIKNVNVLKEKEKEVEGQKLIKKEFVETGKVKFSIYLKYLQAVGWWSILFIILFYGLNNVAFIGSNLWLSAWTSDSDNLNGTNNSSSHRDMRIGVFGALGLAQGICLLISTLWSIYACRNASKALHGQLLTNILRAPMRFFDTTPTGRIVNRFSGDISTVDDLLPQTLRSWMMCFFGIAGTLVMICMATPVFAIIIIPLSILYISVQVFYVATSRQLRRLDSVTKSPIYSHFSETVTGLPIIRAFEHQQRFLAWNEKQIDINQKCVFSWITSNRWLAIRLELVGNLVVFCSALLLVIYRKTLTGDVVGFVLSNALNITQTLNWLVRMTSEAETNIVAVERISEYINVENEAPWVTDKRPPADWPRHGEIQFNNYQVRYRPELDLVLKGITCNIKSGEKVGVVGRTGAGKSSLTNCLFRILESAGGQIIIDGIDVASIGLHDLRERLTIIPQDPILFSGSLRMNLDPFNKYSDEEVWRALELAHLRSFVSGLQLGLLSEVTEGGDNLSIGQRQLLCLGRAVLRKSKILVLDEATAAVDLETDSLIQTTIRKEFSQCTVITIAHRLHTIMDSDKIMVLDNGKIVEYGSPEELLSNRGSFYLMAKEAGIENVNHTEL

Bile salt export pump [2] = target: T1, Bile salt export pump; experiment: TP_TRANSPORTER: inhibition of Taurocholate uptake in membrane vesicles from Bsep-expressing Sf9 cells; format: functional
Bile salt export pump [3] = target: T1, Bile salt export pump; experiment: (§1) TP_TRANSPORTER: uptake in membrane vesicles from Bsep-expressing Sf9 cells; format: functional
[4] = substrate: C[C@H](CCC(=O)NCCS(=O)(=O)O)[C@H]1CC[C@H]2[C@@H]3[C@H](O)C[C@@H]4C[C@H](O)CC[C@]4(C)[C@H]3CC[C@]12C; experiment: as §1; format: functional
[5] = substrate: C[C@H](CCC(=O)NCCS(=O)(=O)O)[C@H]1CC[C@H]2[C@@H]3[C@@H](O)C[C@@H]4C[C@H](O)CC[C@]4(C)[C@H]3CC[C@]12C; experiment: as §1; format: functional

Molecule	Ki (Bile salt export pump [2]) [µM]	Activity (Bile salt export pump [3])	other results
C[C@H](CCC(=O)NCCS(=O)(=O)O)C1CC[C@H]2[C@@H]3CC[C@@H]4C[C@H](OS(=O)(=O)O)CC[C@]4(C)[C@H]3CC[C@]12C (some centres undefined)	–	–	Activity [1]: substrate [+]
COc1ccc(Cl)cc1C(=O)NCCc1ccc(S(=O)(=O)NC(=O)NC2CCCCC2)cc1 [GLYBURIDE]	6.1	–	–
C[C@H](CCC(=O)NCC(=O)O)[C@H]1CC[C@H]2[C@@H]3[C@H](O)C[C@@H]4C[C@H](O)CC[C@]4(C)[C@H]3CC[C@]12C [GLYCOCHENODEOXYCHOLATE]	–	substrate [+]	–
C[C@H](CCC(=O)NCC(=O)O)[C@H]1CC[C@H]2[C@@H]3[C@H](O)C[C@@H]4C[C@H](O)CC[C@]4(C)[C@H]3C[C@H](O)[C@]12C [GLYCOCHOLIC ACID]	–	substrate [+]	–
CO[C@H]1/C=C/O[C@@]2(C)Oc3c(C)c(O)c4c(O)c(c(/C=N/N5CCN(C)CC5)c(O)c4c3C2=O)NC(=O)/C(C)=C\C=C\[C@H](C)[C@H](O)[C@@H](C)[C@@H](O)[C@@H](C)[C@H](OC(C)=O)[C@@H]1C [RIFAMPIN]	11.9	–	–
CO[C@H]1/C=C/O[C@@]2(C)Oc3c(C)c(O)c4c(O)c(cc(O)c4c3C2=O)NC(=O)/C(C)=C\C=C\[C@H](C)[C@H](O)[C@@H](C)[C@@H](O)[C@@H](C)[C@H](OC(C)=O)[C@@H]1C [RIFAMYCIN]	3.8	–	–
C[C@H](CCC(=O)NCCS(=O)(=O)O)[C@H]1CC[C@H]2[C@@H]3CC[C@@H]4C[C@H](O)CC[C@]4(C)[C@H]3C[C@H](O)[C@]12C [TAURODEOXYCHOLIC ACID]	–	substrate [+]	–
Bile salt export pump (Rattus norvegicus) (protein) MSDSVILRSVKKFGEENHAFESDGSHNNDKKSRLQDKMKEGDIRVGFFELFRFSSSKDIWLMLMGGVCALLHGMAQPGILIIFGIMTDIFIKYDIERQELEIPGKACVNNTIVWINSSFHQNMTNGTVCGLVDIESEMIKFSGIYAGVGMTVLILGYFQIRLWVITGARQIRRMRKIYFRRIMRMEIGWFDCTSVGELNSRFADDIEKINDAIADQLAHFLQRMSTAMCGLLLGFYRGWKLTLVILAVSPLIGIGAAVIGLSIAKFTELELKAYAKAGSIADEVLSSIRTVAAFGGENKEVERYEKNLVFAQRWGIWKGMVMGFFTGYMWCLIFFCYALAFWYGSTLVLDEEEYTPGTLVQIFLCVILAAMNIGHASSCLEIFSTGCSAATNIFQTIDRQPVIDCMSGDGYKLDRIKGEIEFHNVTFHYPSRPDVKILDNLSMVIKPGETTALVGSSGAGKSTALQLIQRFYDPCEGMVTLDGHDIRSLNIRWLRDQIGIVEQEPVLFSTTIAENIRFGREDATMEDIVQAAKDANAYNFIMALPQQFDTLVGEGGGQMSGGQKQRVAIARALIRNPKILLLDMATSALDNESEARVQEALNKIQHGHTIISVAHRLSTVRAADVIIGFEHGVAVERGTHEELLERKGVYFMLVTLQSQGDNAHKETSIMGKDATEGGTLERTFSRGSYRDSLRASIRQRSKSQLSLLTHDPPLAVADHKSSYKDSKDNDVLVEEVEPAPVRRILKYNIPEWHYILVGSLSAAINGAVTPIYSLLFSQLLGTFSLLDKEQQRSEIHSMCLFFVILGCVSIFTQFLQGYTFAKSGELLTKRLRKFGFKAMLGQDIGWFDDLRNNPGVLTTRLATDASQVQGATGSQVGMMVNSFTNIIAALLIAFFFSWKLSLIITIFFPFLALSGAVQTKMLTGFASQDKQALEKAGQITSEALSNIRTVAGIGVEGRFIKAFEVELQTSYKTAVRKANIYGLCFAFSQGIAFLANSAAYRYGGYLIAYEGLGFSHVFRVVSSVALSATAVGRTFSYTPSYAKAKISAARFFQLLDRKPPINVYSEAGEKWDNFQGKIDFIDCKFTYPSRPDIQVLNGLSVSVNPGQTLAFVGSSGCGKSTSIQLLERFYDPDQGTVMIDGHDSKKVNIQFLRSNIGIVSQEPVLFDCSIMDNIKYGDNTKEISVERAIAAAKQAQLHDFVMSLPEKYETNVGIQGSQLSRGEKQRIAIARAIVRDPKILLLDEATSALDTESEKTVQTALDKAREGRTCIVIAHRLSTIQNSDIIAVVSQGVVIEKGTHEKLMAQKGAYYKLVITGAPIS	–	–	Km [4]: 2.2 µM; Km [5]: 4.1 µM
